Tests used:
MEK5 = biological target: T1, MEK5 (Homo sapiens, UniProt Q13163); details: 1 μM; Run 1, Run 2
T1 sequence (Q13163 1-448): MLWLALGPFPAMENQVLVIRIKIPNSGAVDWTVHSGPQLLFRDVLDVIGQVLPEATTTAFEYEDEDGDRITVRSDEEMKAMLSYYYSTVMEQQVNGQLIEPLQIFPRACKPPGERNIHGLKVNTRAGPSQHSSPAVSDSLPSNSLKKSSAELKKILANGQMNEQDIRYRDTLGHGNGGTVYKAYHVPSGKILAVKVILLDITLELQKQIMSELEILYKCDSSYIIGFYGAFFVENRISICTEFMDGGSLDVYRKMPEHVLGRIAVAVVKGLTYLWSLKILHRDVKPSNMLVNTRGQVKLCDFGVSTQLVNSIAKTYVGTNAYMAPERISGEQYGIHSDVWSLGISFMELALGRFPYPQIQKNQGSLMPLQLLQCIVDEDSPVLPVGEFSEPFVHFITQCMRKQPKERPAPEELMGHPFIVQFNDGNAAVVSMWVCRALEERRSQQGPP

DMPK = biological target: T2, DMPK (Homo sapiens, UniProt Q09013); details: 1 μM; Run 1, Run 2
T2 sequence (Q09013 1-629): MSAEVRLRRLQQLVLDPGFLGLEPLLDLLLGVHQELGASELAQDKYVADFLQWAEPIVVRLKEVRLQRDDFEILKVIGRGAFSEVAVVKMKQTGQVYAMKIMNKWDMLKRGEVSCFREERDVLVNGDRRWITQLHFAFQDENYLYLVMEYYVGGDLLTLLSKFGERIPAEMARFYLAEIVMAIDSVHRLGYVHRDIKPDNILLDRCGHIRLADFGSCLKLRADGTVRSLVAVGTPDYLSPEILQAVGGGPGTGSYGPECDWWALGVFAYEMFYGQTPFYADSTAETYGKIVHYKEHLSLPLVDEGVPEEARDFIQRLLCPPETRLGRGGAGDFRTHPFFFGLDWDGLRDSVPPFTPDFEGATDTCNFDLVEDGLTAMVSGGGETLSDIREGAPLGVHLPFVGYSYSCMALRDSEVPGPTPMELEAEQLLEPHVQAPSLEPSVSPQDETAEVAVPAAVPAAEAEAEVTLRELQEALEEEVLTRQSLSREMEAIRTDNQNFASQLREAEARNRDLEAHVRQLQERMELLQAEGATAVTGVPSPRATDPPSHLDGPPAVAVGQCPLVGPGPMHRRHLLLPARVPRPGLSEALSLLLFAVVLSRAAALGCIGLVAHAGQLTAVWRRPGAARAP

ITK = biological target: T3, ITK (Homo sapiens, UniProt Q08881); details: 1 μM; Run 1, Run 2
T3 sequence (Q08881 1-620): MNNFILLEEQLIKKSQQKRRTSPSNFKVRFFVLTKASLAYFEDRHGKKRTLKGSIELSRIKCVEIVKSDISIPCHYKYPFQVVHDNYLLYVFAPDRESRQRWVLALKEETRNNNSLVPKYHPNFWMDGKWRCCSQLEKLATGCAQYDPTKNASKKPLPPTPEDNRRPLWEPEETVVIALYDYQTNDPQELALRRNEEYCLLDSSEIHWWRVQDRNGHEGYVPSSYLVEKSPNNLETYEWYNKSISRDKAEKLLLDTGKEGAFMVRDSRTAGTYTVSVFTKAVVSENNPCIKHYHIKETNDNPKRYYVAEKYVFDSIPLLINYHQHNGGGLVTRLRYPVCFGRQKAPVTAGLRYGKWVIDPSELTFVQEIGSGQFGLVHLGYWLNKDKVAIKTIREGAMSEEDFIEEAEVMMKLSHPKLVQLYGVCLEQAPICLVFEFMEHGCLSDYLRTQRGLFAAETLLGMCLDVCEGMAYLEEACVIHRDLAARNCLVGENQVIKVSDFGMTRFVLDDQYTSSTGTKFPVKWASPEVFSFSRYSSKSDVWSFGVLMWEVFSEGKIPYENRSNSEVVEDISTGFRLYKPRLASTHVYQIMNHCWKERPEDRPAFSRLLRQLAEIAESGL

PKCepsilon = biological target: T4, PKCepsilon (Homo sapiens, UniProt Q02156); experiment: biochemical; details: read-out: % enzyme activity, 1 μM; Run 1, Run 2
T4 sequence (Q02156 1-737): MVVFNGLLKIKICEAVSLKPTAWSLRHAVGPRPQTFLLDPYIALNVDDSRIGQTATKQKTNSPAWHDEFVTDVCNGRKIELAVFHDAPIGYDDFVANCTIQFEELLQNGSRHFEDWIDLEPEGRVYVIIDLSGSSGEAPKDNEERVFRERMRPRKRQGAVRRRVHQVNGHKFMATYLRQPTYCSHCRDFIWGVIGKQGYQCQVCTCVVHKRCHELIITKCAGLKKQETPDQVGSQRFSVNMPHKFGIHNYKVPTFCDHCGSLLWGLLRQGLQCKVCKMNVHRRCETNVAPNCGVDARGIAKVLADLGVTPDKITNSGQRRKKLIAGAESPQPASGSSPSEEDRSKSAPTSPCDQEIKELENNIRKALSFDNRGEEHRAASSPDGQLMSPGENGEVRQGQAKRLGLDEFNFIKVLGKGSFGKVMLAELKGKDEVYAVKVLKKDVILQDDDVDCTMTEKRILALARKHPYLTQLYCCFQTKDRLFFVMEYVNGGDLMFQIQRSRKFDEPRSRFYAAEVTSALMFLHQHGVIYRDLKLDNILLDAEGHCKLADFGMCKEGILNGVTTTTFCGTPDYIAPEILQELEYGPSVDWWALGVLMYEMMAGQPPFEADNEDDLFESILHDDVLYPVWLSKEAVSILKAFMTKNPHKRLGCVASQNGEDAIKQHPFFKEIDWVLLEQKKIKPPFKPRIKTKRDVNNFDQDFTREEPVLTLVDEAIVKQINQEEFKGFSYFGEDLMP

PBK/TOPK = biological target: T5, PBK/TOPK (Homo sapiens, UniProt Q96KB5); details: 1 μM; Run 1, Run 2
T5 sequence (Q96KB5 1-322): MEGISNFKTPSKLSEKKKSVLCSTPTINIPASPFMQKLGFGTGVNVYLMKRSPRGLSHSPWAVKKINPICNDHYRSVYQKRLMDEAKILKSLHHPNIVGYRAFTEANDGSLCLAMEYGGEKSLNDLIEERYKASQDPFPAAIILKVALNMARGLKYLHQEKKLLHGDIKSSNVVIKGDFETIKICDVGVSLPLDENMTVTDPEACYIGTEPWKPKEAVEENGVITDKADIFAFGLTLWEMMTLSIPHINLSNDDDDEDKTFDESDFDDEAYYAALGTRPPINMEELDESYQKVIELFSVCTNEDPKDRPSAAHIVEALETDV

SMILES | % enzyme activity (MEK5) | % enzyme activity (DMPK) | % enzyme activity (ITK) | remaining activity at 1 µM (PKCepsilon) | % enzyme activity (PBK/TOPK)
COc1cc(-c2cncc(-c3ccc(N4CCN(C)CC4)cc3)c2C)cc(F)c1C(N)=O [Compound 26a, 2-Fluoro-6-methoxy-4-(4-methyl-5-(4-(4-methylpiperazin-1-yl)phenyl)pyridin-3-yl)benzamide] | 85.95% | 108.75% | 103.48% | 99.8% | 89.81%
COc1cc(-c2cncc(-c3ccc(N4C[C@@H](C)N(C)[C@@H](C)C4)cc3)c2C)cc(F)c1C(N)=O [Compound 26c, 2-Fluoro-6-methoxy-4-(4-methyl-5-(4-((3R,5S)-3,4,5-trimethylpiperazin-1-yl)phenyl)pyridin-3-yl)benzamide] | 92.97% | 99.12% | 100.51% | 106% | 102.56%

— article PMC8213057, “Targeting ALK2: An Open Science Approach to Developing Therapeutics for the Treatment of Diffuse Intrinsic Pontine Glioma” (Journal of Medicinal Chemistry, 2020)
